The source of these data is ChEMBL document CHEMBL1142690, “Synthesis of NO-donor bisphosphonates and their in-vitro action on bone resorption” (J Med Chem, 2005).

The species entered for one assay is Rattus norvegicus. The assay is described as follows: Effect of compound on osteoclasts formation at concentration of 100 nM in rat femurs. The class given is functional, Femur.
Assay [1] relates to Rattus. The assay is described as follows: Effect of compound on osteoclast resorption activity at concentration of 100 nM in rat femurs. The class given is functional, Femur.
A short description of assay [2]: Dissociation constant determined by the pH-metric method. The class given is functional.
Assay [3] is described as follows: Affinity for hydroxyapatite after 24 hours. The class given is functional.
Assay [4] concerns RAW264.7. Kind of assay: Effect of compound on osteoclasts formation (compound concentration of 100 nM, RANKL at 50 ng/ml and ODQ at 10 uM) as observed in clonal RAW264.7 cells. Format: functional, Mus musculus.
The test system of assay [5] is RAW264.7. The assay is described as follows: Effect of compound on osteoclasts formation (compound concentration of 100 nM and RANKL at 50 ng/ml) as observed in clonal RAW264.7 cells. The class given is functional, Mus musculus.
The test system of assay [6] is Rattus. Kind of assay: Effect of compound on osteoclast resorption activity at concentration of 100 nM in rat femur. Format: functional.

As for `CC(C)C[C@H](NC(=O)[C@H](CCCCN)NC(=O)CNC(=O)[C@H](CC(C)C)NC(=O)[C@@H](NC(=O)[C@@H]1CSSC[C@H](N)C(=O)N[C@@H](CO)C(=O)N[C@@H](CC(N)=O)C(=O)N[C@@H](CC(C)C)C(=O)N[C@@H](CO)C(=O)N[C@@H]([C@@H](C)O)C(=O)N1)C(C)C)C(=O)N[C@@H](CO)C(=O)N[C@@H](CCC(N)=O)C(=O)N[C@@H](CCC(=O)O)C(=O)N[C@@H](CC(C)C)C(=O)N[C@@H](Cc1c[nH]cn1)C(=O)N[C@@H](CCCCN)C(=O)N[C@@H](CC(C)C)C(=O)N[C@@H](CCC(N)=O)C(=O)N[C@H](C(=O)N[C@@H](Cc1ccc(O)cc1)C(=O)N1CCC[C@H]1C(=O)N[C@@H](CCCNC(=N)N)C(=O)N[C@H](C(=O)N[C@@H](CC(N)=O)C(=O)N[C@H](C(=O)NCC(=O)N[C@@H](CO)C(=O)NCC(=O)N[C@H](C(=O)N1CCC[C@H]1C(N)=O)[C@@H](C)O)[C@@H](C)O)[C@@H](C)O)[C@@H](C)O` [CALCITONIN SALMON], the Count in the assay filed under Rattus norvegicus is listed as 27.5. The Ratio in the assay with Rattus [1] is on record as 0.01.
As to `O=P(O)(O)C(Sc1ccc(Cl)cc1)P(=O)(O)O`, in assay [2], the pKa1 is under 1.5, the pKa2 was determined as 2.27, the pKa3 turned out to be 6.31 and the pKa4 was determined as 10.6. The same compound came in with an Affinity in assay [3] of 58.4%.
As for `CCCCC(P(=O)(O)O)P(=O)(O)O`, the figures for the Count with RAW264.7 [4] and in the assay with RAW264.7 [5] were 62.4 and 61.2, respectively.
With `O=[N+]([O-])OCCCCC(P(=O)(O)O)P(=O)(O)O`, the Count in the assay filed under Rattus norvegicus came out at 21.88. In assay [2], this compound showed a pKa1 of under 1.5, a pKa2 of 3.08, a pKa3 of 6.87 and a pKa4 of 11.5. Besides, the Count in the assay on RAW264.7 [4] worked out at 58.9. The same compound returned a Count in the assay with RAW264.7 [5] of 40.2. Also, in the assay on Rattus [6], the Ratio came to 1.18. In assay [3], this compound registered an Affinity of 65%.
Consider `CCCCCN(C)CCC(O)(P(=O)(O)O)P(=O)(O)O` [IBANDRONIC ACID], for which the Count in the assay on RAW264.7 [4] came to 34.2; in the assay on RAW264.7 [5] it was 39.8.
In assay [2], `O=[N+]([O-])OCCCCC(O)(P(=O)(O)O)P(=O)(O)O` returned a pKa1 of under 1.5, a pKa2 of 2.85, a pKa3 of 6.83 and a pKa4 of 11.3. The compound further gave a Count in the assay on RAW264.7 [4] of 59.6. Also, the Count in the assay with RAW264.7 [5] was found to be 32.8. In assay [3], this compound returned an Affinity of 43.4%.
